Key:
Assay type in all cases: biochemical
PYR1-HAB1 = target: T1, PYR1-HAB1 (Arabidopsis thaliana, UniProt O49686); assay: PP2C activity assay, PYR1-HAB1 inhibition; conditions: for activity at 0.2 µM: 200 nM test compound, 100 nM HAB1 PP2C, 200 nM receptor, read-out: % Inhibition of PYR/PYL-HAB1 at 200 nM: PYR1; for IC50: dose response in triplicate, non-linear regression
T1 construct: 6xHis (N); made in house; host or cells: E. coli BL21[DE3]pLysS (stated for GST-HAB1)
T1 sequence (O49686 1-191): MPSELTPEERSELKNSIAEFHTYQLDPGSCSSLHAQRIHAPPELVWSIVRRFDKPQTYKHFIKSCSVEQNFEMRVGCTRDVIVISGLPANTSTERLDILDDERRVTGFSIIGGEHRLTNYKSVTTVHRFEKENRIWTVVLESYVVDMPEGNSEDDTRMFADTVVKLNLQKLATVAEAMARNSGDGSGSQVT
T1 sequence (Q9CAJ0 23-511 partner): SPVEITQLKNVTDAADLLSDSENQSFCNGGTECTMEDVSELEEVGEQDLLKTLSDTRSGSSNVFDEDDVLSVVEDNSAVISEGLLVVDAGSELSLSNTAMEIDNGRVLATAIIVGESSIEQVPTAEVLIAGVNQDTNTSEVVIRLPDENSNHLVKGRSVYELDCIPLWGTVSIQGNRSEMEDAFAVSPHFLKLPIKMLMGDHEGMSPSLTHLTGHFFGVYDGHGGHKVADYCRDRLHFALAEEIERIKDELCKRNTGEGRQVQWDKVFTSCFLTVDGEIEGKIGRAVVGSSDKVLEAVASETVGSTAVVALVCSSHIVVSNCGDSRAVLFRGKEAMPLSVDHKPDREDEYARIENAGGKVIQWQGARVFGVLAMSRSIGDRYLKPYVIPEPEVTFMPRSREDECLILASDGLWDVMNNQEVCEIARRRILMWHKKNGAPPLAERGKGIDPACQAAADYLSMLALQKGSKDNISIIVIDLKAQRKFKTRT
Text: (§1) The protein HAB1, a type 2 protein phosphatase (PP2C), is inhibited by PYR/PYL proteins in dependence of abscisic acid or other agonists. The potency of an agonist correlates with the level of inhibition of the PP2C, and therefore the IC50 (receptor-HAB1) can be used to compare the relative activity of different chemical analogues. Since inhibition of PP2C correlates to inhibition of seed-germination and increase in plant water-use efficiency, it serves as a powerful tool to quantify biological potential of a chemical acting as an analogue of abscisic acid.
(§2) HAB1 and PYL proteins were expressed and purified as described in Park et al. ((2009) Science 324(5930):1068-1071), with minor modifications. GST-HAB1 was produced by expression in BL21[DE3]pLysS host cells with an expression clone containing the HAB1 cDNA cloned into pGex-2T. Transformed E. coli cells were pre-cultured overnight, transferred to LB medium and cultured at 30° C. to culture A600 of ˜0.5 OD units. The culture was then cooled on ice and MnCl2 added to 4 mM and IPTG added to 0.3 mM. After 16 hours incubation at 15° C., cells were harvested and recombinant proteins were purified on glutathione agarose as described in Park et al. To obtain 6×His-PYL receptor fusion proteins, we used expression constructs previously described by Okamoto et al. 2013, (PNAS 110(29): 12132-12137).
(§3) PP2C activity assays using recombinant receptors and PP2Cs were carried out as follows: purified proteins were pre-incubated in 160 μl assay buffer containing (100 mM Tris-HCl-pH7.9, 100 mM NaCl, 3 μg bovine serum albumin and 0.1% 2-mercaptoethanol), 1 mM MnCl2 with carrier solvent (DMSO), quinabactin or quinabactin analogs (compounds of the present invention) for 30 minutes at room temperature. Reactions were started by adding 40 μL of a reaction solution containing 25 mM 4-nitrophenyl phosphate in assay buffer, after which absorbance measurements were immediately collected (405 nm) using a Wallac plate reader. […] Inhibition is indicated by reduced PP2C activity, which is expressed as a percentage of the control PP2C activity values that were obtained from assays containing carrier solvent instead but no test compound.

PYL1-HAB1 = target: T2, PYL1-HAB1 (Arabidopsis thaliana, UniProt Q8VZS8); assay: PP2C activity assay, PYL1-HAB1 inhibition; conditions: 200 nM test compound, 100 nM HAB1 PP2C, 200 nM receptor; read-out: % Inhibition of PYR/PYL-HAB1 at 200 nM: PYL1
T2 construct: 6xHis (N); made in house; host or cells: E. coli BL21[DE3]pLysS (stated for GST-HAB1)
T2 sequence (Q8VZS8 1-221): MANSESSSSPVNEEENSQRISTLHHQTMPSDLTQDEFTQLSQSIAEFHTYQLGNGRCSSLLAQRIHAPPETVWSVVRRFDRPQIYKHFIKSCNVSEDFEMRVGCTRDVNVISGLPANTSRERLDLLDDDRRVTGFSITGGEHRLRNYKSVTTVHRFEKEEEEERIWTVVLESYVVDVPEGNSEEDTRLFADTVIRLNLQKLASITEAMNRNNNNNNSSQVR
T2 sequence (Q9CAJ0 23-511 partner): T1 sequence (Q9CAJ0 23-511 partner)
Text: as §1, §2
PP2C activity assays using recombinant receptors and PP2Cs were carried out as follows: purified proteins were pre-incubated in 160 μl assay buffer containing (100 mM Tris-HCl-pH7.9, 100 mM NaCl, 3 μg bovine serum albumin and 0.1% 2-mercaptoethanol), 1 mM MnCl2 with carrier solvent (DMSO), quinabactin or quinabactin analogs (compounds of the present invention) for 30 minutes at room temperature. Reactions were started by adding 40 μL of a reaction solution containing 25 mM 4-nitrophenyl phosphate in assay buffer, after which absorbance measurements were immediately collected (405 nm) using a Wallac plate reader. Reactions contained 100 nM HAB1 PP2C and 200 nM receptor and 200 nM test compound. Inhibition is indicated by reduced PP2C activity, which is expressed as a percentage of the control PP2C activity values that were obtained from assays containing carrier solvent instead but no test compound.

PYL2-HAB1 = target: T3, PYL2-HAB1 (Arabidopsis thaliana, UniProt O80992); assay: PP2C activity assay, PYL2-HAB1 inhibition; conditions: for percent inhibition at 0.2 µM: 200 nM test compound, 100 nM HAB1 PP2C, 200 nM receptor, read-out: % Inhibition of PYR/PYL-HAB1 at 200 nM: PYL2; for IC50: dose response in triplicate, non-linear regression
T3 construct: 6xHis (N); made in house; host or cells: E. coli BL21[DE3]pLysS (stated for GST-HAB1)
T3 sequence (O80992 1-190): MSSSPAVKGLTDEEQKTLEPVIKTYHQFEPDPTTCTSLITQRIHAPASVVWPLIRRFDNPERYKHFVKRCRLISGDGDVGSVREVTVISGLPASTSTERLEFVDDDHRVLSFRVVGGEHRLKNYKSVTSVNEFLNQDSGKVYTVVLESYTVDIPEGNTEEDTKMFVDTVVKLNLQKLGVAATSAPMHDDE
T3 sequence (Q9CAJ0 23-511 partner): T1 sequence (Q9CAJ0 23-511 partner)
Text: as §1, §2, §3

activity at 0.2 µM (PYR1-HAB1) [%]	activity at 0.2 µM (PYL1-HAB1) [%]	percent inhibition at 0.2 µM (PYL2-HAB1) [%]	IC50 (PYR1-HAB1) [nM]	IC50 (PYL2-HAB1) [nM]	Structure (SMILES)
104	88.1	88.2			CCCN1C(=O)CCc2cc(NS(=O)(=O)Cc3cccc(C(F)(F)F)c3)cc(F)c21 [HQ17]
35	34.2	46.7	63.3	102	CCCN1C(=O)CCc2cc(NS(=O)(=O)Cc3ccc(Cl)cc3)cc(F)c21 [HQ18]
82.7	73.4	82.3			CCCN1C(=O)CCc2cc(NS(=O)(=O)Cc3ccc(C(F)(F)F)nc3)cc(F)c21 [HQ19]
97.4	84.7	94.1			CCCN1C(=O)CCc2cc(NS(=O)(=O)Cc3ccccc3Br)cc(F)c21 [HQ20]
62.4	48.2	63.7			CCCN1C(=O)CCc2cc(NS(=O)(=O)Cc3cccc(F)c3)cc(F)c21 [HQ21]
91.5	70.6	86.3			CCCN1C(=O)CCc2cc(NS(=O)(=O)Cc3ccc(Cl)cc3Cl)cc(F)c21 [HQ22]
90.8	85.7	87.8			CCCN1C(=O)CCc2cc(NS(=O)(=O)Cc3cccc(Br)c3)cc(F)c21 [HQ23]
69	53.2	76.5			CCCN1C(=O)CCc2cc(NS(=O)(=O)Cc3ccc([N+](=O)[O-])cc3)cc(F)c21 [HQ24]
33.8	20.8	42.8	75	77	CCCN1C(=O)CCc2cc(NS(=O)(=O)Cc3ccc(Br)cc3)cc(F)c21 [HQ25]
63.6	51.4	74.8			CCCN1C(=O)CCc2cc(NS(=O)(=O)Cc3ccccc3)cc(F)c21 [HQ26]
90	79.8	88			CCCN1C(=O)CCc2cc(NS(=O)(=O)Cc3cccc(Cl)c3)cc(F)c21 [HQ27]

Second part, the compound before the results:

Structure (SMILES)	activity at 0.2 µM (PYR1-HAB1) [%]	activity at 0.2 µM (PYL1-HAB1) [%]	percent inhibition at 0.2 µM (PYL2-HAB1) [%]	IC50 (PYR1-HAB1) [nM]	IC50 (PYL2-HAB1) [nM]
CCCN1C(=O)CCc2cc(NS(=O)(=O)Cc3ccccc3F)cc(F)c21 [HQ3]	65.7	46.7	78.3		
CCCN1C(=O)CCc2cc(NS(=O)(=O)Cc3ccc(F)cc3F)cc(F)c21 [HQ4]	61.5	46.1	69.3		
CCCN1C(=O)CCc2cc(NS(=O)(=O)Cc3ccc(Br)cc3F)cc(F)c21 [HQ5]	42.9	18.2	51.8		
CCCN1C(=O)CCc2cc(NS(=O)(=O)Cc3cc(F)ccc3F)cc(F)c21 [HQ6]	57.9	35.1	57.4		
CCCN1C(=O)CCc2cc(NS(=O)(=O)Cc3cccc(F)c3F)cc(F)c21 [HQ7]	53.9	31	67.4		
CCCN1C(=O)CCc2cc(NS(=O)(=O)Cc3ccc(F)cc3Br)cc(F)c21 [HQ8]	107	87.4	92		
CCCN1C(=O)CCc2cc(NS(=O)(=O)Cc3ccc(Cl)cc3Br)cc(F)c21 [HQ9]	105	86.9	92.2		
CCCN1C(=O)CCc2cc(NS(=O)(=O)Cc3ccc(C#N)cc3)cc(F)c21 [HQ10]	39.8	44.3	77.2		
CCCN1C(=O)CCc2cc(NS(=O)(=O)Cc3ccc(C#N)cc3F)cc(F)c21 [HQ11]	28.8	27.9	73.5	61.2	317
CCCN1C(=O)CCc2cc(NS(=O)(=O)Cc3ccccc3C#N)cc(F)c21 [HQ12]	106	82.4	94.5		
CCCN1C(=O)CCc2cc(NS(=O)(=O)Cc3ccc(F)cc3Cl)cc(F)c21 [HQ13]	110	88.2	94.1		
CCCN1C(=O)CCc2cc(NS(=O)(=O)Cc3ccc(C(=O)OC)cc3)cc(F)c21 [HQ14]	62.6	78.9	91.8		
CCCN1C(=O)CCc2cc(NS(=O)(=O)Cc3ccc(OC(F)(F)F)cc3)cc(F)c21 [HQ15]	54.8	47.6	70.1		
CCCN1C(=O)CCc2cc(NS(=O)(=O)Cc3ccc(C(F)(F)F)cc3)cc(F)c21 [HQ16]	52	38.5	53.9		
